Laboratory results reported in patent US20140323443A1, “TIGECYCLINE FORMULATIONS” (Fresenius Kabi USA, LLC, priority 2013, published 2014).

Experiments:
[1] = pH of a saturated solution of tigecycline in water; assay type: physicochemical
Protocol: A solid composition that includes tigecycline and arginine may further include an acid and/or a base. The pH of a saturated solution of tigecycline in water is about 8. The amount of the acid and/or base may be an amount sufficient to provide a pH in the range of from 4 to 6 when a composition containing 53 mg tigecycline is reconstituted in 5.3 mL of an aqueous carrier liquid, such as 0.9% sodium chloride injection. Preferably the amount of the acid and/or base may be an amount sufficient to provide a pH in the range of from 4.25 to 5.75, from 4.5 to 5.75, from 4.5 to 5.5, or from 4.75 to 5.25 when a composition containing 53 mg tigecycline is reconstituted in 5.3 mL of an aqueous carrier liquid. In some embodiments, hydrochloric acid and/or sodium hydroxide is used to adjust pH.

[2] = cited from earlier work
[3] = aqueous liquid at 2-8° C., water sparged and tigecycline blanketed with inert gas, for 24 hours; cited from earlier work

- pH of a saturated solution in water [1]: about 8
Compound: CN(C)c1cc(NC(=O)CNC(C)(C)C)c(O)c2c1C[C@H]1C[C@H]3[C@H](N(C)C)C(O)=C(C(N)=O)C(=O)[C@@]3(O)C(O)=C1C2=O [tigecycline, (4S,4aS,5aR,12aS)-9-[2-(tert-butylamino)acetamido]-4,7-bis(dimethyl-amino)-1,4,4a,5,5a,6,11,12a-octahydro-3,10,12,12a-tetrahydroxy-1,11-dioxo-2-naphthacenecarboxamide]
- oral bioavailability [2]: poor
- amount of tigecycline converted into degradants prior to lyophilization [3]: below 1%
